Data reported in patent publication US11752188B2, “Compositions and methods for nutritional supplements” (DailyColors Health Inc., priority 2020, dated 2023).
Like-named read-outs stand apart in the source and are kept apart here.

How the values were obtained:
Format in all cases: biochemical
[1] = target: T1, recombinant human NAMPT (Homo sapiens, UniProt P43490); assay: NAMPT in vitro enzymatic fluorescence assay
T1 construct: purchased 91004
Method: Assay Conditions: The control compound is dissolved in DMSO. The dilution of the compounds was first performed in 100% DMSO with the highest concentration at 0.01 mM. […] For NAMPT, the compounds (see 2.2) were preincubated with NAMPT enzyme (see 2.3.1) in for 30 minutes. […] The final concentration of DMSO in all reactions was 1%. Fluorescence intensity was measured at an excitation of 340 nm and an emission of 460 nm using a Tecan Infinite M1000 microplate reader.
Data Analysis: NAMPT activity assays were performed in duplicates at each concentration. […] In the absence of the compound, the fluorescent intensity (Ft) in each data set was defined as 100% activity. In the absence of NAMPT, the fluorescent intensity (Fb) in each data set was defined as 0% activity. The percent activity in the presence of each compound was calculated according to the following equation: % activity=(F−Fb)/(Ft−Fb), where F=the fluorescent intensity in the presence of the compound. The values of percentage activity were plotted on a bar graph.

[2] = target: recombinant human JAK1 (Homo sapiens, UniProt P23458); assay: JAK1 Kinase-Glo Plus luminescence kinase assay
Sequence of recombinant human JAK1 (P23458 whole entry): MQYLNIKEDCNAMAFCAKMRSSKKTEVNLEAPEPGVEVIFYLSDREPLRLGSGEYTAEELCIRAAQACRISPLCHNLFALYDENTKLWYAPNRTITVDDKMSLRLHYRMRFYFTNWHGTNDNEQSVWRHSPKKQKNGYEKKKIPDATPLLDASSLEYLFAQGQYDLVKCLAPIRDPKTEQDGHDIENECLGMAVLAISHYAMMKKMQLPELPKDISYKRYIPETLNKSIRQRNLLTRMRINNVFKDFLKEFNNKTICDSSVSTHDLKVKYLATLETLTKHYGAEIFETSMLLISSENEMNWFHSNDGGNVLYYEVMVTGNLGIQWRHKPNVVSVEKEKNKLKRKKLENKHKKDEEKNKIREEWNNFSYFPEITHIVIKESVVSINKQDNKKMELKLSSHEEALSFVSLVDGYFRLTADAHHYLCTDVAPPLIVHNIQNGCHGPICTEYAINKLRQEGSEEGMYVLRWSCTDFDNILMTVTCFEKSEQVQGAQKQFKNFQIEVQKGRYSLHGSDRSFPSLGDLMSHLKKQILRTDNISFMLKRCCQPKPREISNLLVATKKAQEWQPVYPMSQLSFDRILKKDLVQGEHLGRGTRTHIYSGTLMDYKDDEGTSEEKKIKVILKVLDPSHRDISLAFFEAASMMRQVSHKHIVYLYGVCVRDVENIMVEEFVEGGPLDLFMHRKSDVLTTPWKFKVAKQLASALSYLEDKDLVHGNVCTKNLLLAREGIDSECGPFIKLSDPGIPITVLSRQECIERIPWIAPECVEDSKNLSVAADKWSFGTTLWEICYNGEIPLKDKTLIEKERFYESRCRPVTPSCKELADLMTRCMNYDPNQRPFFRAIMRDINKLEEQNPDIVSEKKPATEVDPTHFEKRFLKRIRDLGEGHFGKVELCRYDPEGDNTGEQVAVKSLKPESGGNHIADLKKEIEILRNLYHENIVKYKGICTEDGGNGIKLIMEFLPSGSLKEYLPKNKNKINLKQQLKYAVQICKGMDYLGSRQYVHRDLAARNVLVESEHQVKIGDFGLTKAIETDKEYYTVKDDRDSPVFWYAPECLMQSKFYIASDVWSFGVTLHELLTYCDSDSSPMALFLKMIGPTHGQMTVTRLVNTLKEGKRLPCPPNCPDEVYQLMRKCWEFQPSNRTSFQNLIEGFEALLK

[3] = target: recombinant human JAK2 (Homo sapiens, UniProt O60674); assay: JAK2 Kinase-Glo Plus luminescence kinase assay
Sequence of recombinant human JAK2 (O60674 whole entry): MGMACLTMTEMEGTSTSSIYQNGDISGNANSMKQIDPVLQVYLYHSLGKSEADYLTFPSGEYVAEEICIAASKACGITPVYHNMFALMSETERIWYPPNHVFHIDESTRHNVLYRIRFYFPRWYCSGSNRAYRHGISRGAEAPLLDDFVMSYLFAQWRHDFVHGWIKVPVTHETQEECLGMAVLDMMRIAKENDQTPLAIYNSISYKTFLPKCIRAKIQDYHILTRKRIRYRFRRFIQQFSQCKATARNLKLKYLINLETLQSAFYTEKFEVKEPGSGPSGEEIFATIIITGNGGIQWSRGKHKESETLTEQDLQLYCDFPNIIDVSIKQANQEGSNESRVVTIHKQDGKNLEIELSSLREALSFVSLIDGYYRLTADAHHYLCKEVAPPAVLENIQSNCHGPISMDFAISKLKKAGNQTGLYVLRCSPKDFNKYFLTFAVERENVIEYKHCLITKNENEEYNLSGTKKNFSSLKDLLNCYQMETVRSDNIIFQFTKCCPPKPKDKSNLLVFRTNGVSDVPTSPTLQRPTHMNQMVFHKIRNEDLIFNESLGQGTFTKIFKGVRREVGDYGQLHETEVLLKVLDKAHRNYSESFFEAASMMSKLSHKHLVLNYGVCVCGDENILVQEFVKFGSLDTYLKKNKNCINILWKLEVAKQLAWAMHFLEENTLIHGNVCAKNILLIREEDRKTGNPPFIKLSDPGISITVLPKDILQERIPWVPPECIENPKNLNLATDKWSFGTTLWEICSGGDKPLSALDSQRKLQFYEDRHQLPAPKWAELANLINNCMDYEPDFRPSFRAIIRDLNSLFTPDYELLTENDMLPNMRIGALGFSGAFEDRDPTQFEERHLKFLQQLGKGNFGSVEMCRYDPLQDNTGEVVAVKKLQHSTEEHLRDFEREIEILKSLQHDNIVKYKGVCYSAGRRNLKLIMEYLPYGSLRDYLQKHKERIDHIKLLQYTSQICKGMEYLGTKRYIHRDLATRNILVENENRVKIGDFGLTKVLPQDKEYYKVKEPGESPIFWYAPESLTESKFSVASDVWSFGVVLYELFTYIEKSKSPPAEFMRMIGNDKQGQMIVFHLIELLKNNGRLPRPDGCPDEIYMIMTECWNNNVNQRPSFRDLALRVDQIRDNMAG

[4] = target: T2, recombinant human JAK3 (Homo sapiens, UniProt P52333); assay: JAK3 Kinase-Glo Plus luminescence kinase assay
T2 sequence (P52333 1-1124): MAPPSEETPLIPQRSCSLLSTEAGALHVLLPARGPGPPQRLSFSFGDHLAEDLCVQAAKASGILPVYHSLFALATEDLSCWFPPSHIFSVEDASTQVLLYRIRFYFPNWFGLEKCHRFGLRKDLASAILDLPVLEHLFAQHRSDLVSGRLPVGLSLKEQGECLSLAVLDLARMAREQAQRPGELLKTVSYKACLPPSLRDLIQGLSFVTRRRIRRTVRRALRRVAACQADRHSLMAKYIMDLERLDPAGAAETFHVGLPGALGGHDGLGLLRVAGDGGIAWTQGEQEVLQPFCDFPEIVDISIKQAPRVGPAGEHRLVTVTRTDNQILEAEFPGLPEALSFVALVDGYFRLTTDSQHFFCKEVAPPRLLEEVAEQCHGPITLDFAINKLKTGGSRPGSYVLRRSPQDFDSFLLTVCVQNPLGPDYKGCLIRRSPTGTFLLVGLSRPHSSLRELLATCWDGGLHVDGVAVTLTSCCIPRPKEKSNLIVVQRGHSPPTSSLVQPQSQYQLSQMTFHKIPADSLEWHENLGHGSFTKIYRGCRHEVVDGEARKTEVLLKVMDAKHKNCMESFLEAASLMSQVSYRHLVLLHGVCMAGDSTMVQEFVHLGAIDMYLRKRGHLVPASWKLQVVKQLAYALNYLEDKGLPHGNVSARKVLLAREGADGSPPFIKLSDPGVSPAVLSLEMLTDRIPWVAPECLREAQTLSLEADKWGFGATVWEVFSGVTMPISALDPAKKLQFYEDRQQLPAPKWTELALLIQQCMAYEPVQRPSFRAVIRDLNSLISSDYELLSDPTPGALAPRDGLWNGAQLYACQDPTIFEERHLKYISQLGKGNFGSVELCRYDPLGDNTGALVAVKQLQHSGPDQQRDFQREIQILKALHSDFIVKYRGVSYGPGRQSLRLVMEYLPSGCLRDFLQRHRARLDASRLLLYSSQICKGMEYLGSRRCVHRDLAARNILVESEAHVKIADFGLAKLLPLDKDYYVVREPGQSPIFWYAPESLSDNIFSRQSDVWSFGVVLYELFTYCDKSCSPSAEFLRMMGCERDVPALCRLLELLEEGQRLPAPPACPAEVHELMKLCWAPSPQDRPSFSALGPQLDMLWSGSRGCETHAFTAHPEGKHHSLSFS

T1 sequence (P43490 whole entry): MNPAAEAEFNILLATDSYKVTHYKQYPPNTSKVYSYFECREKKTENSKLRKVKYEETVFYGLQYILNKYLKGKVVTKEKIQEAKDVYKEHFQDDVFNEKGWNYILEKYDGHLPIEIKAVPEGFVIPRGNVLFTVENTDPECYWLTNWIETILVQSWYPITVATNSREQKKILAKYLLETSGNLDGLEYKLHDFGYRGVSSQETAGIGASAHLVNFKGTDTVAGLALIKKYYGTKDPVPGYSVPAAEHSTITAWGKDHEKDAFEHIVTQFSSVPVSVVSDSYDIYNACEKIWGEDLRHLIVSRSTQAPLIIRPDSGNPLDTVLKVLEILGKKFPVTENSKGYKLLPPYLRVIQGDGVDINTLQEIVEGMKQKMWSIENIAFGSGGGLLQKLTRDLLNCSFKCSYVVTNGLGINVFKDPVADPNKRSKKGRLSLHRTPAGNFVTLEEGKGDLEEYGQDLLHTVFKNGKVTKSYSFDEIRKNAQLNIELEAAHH

## O=C(/C=C/c1cccnc1)NCCCCC1CCN(C(=O)c2ccccc2)CC1 [FK-866]
[1]
  inhibition at 0.001 µM: 4%
  inhibition at 0.01 µM: 57%
  inhibition at 0.1 µM: 100%
[1]; 0.001 μM
  Background (Fluorescence count) Repeat 1: 450
  Background (Fluorescence count) Repeat 2: 442
  NAMPT Activity (Fluorescence Intensity) Repeat 1: 3328
  NAMPT Activity (Fluorescence Intensity) Repeat 2: 3345
[1]; 0.01 μM
  Background (Fluorescence count) Repeat 1: 454
  Background (Fluorescence count) Repeat 2: 461
  NAMPT Activity (Fluorescence Intensity) Repeat 1: 1750
  NAMPT Activity (Fluorescence Intensity) Repeat 2: 1766
[1]; 0.1 μM
  Background (Fluorescence count) Repeat 1: 440
  Background (Fluorescence count) Repeat 2: 442
  NAMPT Activity (Fluorescence Intensity) Repeat 1: 463
  NAMPT Activity (Fluorescence Intensity) Repeat 2: 468
[1]; read-out: % Activity Repeat 1
  activity at 0.001 µM: 95%
  activity at 0.01 µM: 42%
  activity at 0.1 µM: 0%
[1]; read-out: % Activity Repeat 2
  activity at 0.001 µM: 96%
  activity at 0.01 µM: 43%
  activity at 0.1 µM: 0%

## CN[C@@H]1C[C@H]2O[C@@](C)([C@@H]1OC)n1c3ccccc3c3c4c(c5c6ccccc6n2c5c31)C(=O)NC4 [Staurosporine]
[2]
  inhibition at 0.001 µM: 7%
  inhibition at 0.01 µM: 72%
[2]; 0.001 μM, TABLE 68
  Kinase Activity Luminescence Repeat1: 25176
  Kinase Activity Luminescence Repeat2: 27054
[2]; 1 nM, TABLE 71
  Kinase Activity Luminescence Repeat1: 21164
  Kinase Activity Luminescence Repeat2: 24810
[2]; 0.01 μM, TABLE 68
  Kinase Activity Luminescence Repeat1: 37642
  Kinase Activity Luminescence Repeat2: 35358
[2]; 10 nM, TABLE 71
  Kinase Activity Luminescence Repeat1: 28640
  Kinase Activity Luminescence Repeat2: 32000
[2]; 0.1 μM, TABLE 68
  Kinase Activity Luminescence Repeat1: 40161
  Kinase Activity Luminescence Repeat2: 40781
[2]; 100 nM, TABLE 71
  Kinase Activity Luminescence Repeat1: 36908
  Kinase Activity Luminescence Repeat2: 39509
[2]; read-out: % Activity Repeat1, 0.001 μM, TABLE 68
  activity at 0.001 µM: 99%
[2]; read-out: % Activity Repeat1, 1 nM, TABLE 71
  activity at 0.001 µM: 88%
[2]; read-out: % Activity Repeat1, 10 nM, TABLE 71
  activity at 0.01 µM: 52%
[2]; read-out: % Activity Repeat1, 0.1 μM, TABLE 68
  activity at 0.1 µM: 5%
[2]; read-out: % Activity Repeat1, 100 nM, TABLE 71
  activity at 0.1 µM: 11%
[2]; read-out: % Activity Repeat2, 0.001 μM, TABLE 68
  activity at 0.001 µM: 87%
[2]; read-out: % Activity Repeat2, 1 nM, TABLE 71
  activity at 0.001 µM: 70%
[2]; read-out: % Activity Repeat2, 0.1 μM, TABLE 68
  activity at 0.1 µM: 1%
[2]; read-out: % Activity Repeat2, 100 nM, TABLE 71
  activity at 0.1 µM: 0%
[2]; read-out: % Inhibition JAK1
  inhibition at 0.01 µM: 56%
  inhibition at 0.1 µM: 94%
[3]; 0.001 μM, TABLE 69
  Kinase Activity Luminescence Repeat1: 19100
  Kinase Activity Luminescence Repeat2: 20922
  inhibition at 0.001 µM: 0%
[3]; 0.001 μM, TABLE 69, read-out: % Activity Repeat1
  activity at 0.001 µM: 105%
[3]; 0.001 μM, TABLE 69, read-out: % Activity Repeat2
  activity at 0.001 µM: 96%
[3]; 1 nM, TABLE 72
  Kinase Activity Luminescence Repeat1: 9482
  Kinase Activity Luminescence Repeat2: 10430
[3]; 1 nM, TABLE 72, read-out: % Activity Repeat1
  activity at 0.001 µM: 89%
[3]; 1 nM, TABLE 72, read-out: % Activity Repeat2
  activity at 0.001 µM: 86%
[3]; 0.01 μM, TABLE 69
  Kinase Activity Luminescence Repeat1: 36988
  Kinase Activity Luminescence Repeat2: 36554
[3]; 0.01 μM, TABLE 69, read-out: % Activity Repeat1
  activity at 0.01 µM: 16%
[3]; 0.01 μM, TABLE 69, read-out: % Activity Repeat2
  activity at 0.01 µM: 18%
[3]; 0.01 μM, TABLE 69, read-out: % Inhibition
  inhibition at 0.01 µM: 83%
[3]; 10 nM, TABLE 72
  Kinase Activity Luminescence Repeat1: 17529
  Kinase Activity Luminescence Repeat2: 16180
[3]; 10 nM, TABLE 72, read-out: % Activity Repeat1
  activity at 0.01 µM: 65%
[3]; 10 nM, TABLE 72, read-out: % Activity Repeat2
  activity at 0.01 µM: 69%
[3]; 10 nM, TABLE 74 summary, read-out: % Inhibition JAK2
  inhibition at 0.01 µM: 33%
[3]; 0.1 μM, TABLE 69
  Kinase Activity Luminescence Repeat1: 42700
  Kinase Activity Luminescence Repeat2: 40639
  inhibition at 0.1 µM: 100%
[3]; 0.1 μM, TABLE 69, read-out: % Activity Repeat1
  activity at 0.1 µM: 0%
[3]; 0.1 μM, TABLE 69, read-out: % Activity Repeat2
  activity at 0.1 µM: 0%
[3]; 100 nM, TABLE 72
  Kinase Activity Luminescence Repeat1: 34660
  Kinase Activity Luminescence Repeat2: 34762
[4]
  inhibition at 0.001 µM: 19%
  inhibition at 0.01 µM: 65%
  inhibition at 0.1 µM: 100%
[4]; 0.001 μM, TABLE 70
  Kinase Activity Luminescence Repeat1: 23814
  Kinase Activity Luminescence Repeat2: 23348
[4]; 1 nM, TABLE 73
  Kinase Activity Luminescence Repeat1: 21050
  Kinase Activity Luminescence Repeat2: 24827
[4]; 0.01 μM, TABLE 70
  Kinase Activity Luminescence Repeat1: 32137
  Kinase Activity Luminescence Repeat2: 32417
[4]; 10 nM, TABLE 73
  Kinase Activity Luminescence Repeat1: 32876
  Kinase Activity Luminescence Repeat2: 34538
[4]; 0.1 μM, TABLE 70
  Kinase Activity Luminescence Repeat1: 39970
  Kinase Activity Luminescence Repeat2: 40121
[4]; 100 nM, TABLE 73
  Kinase Activity Luminescence Repeat1: 37496
  Kinase Activity Luminescence Repeat2: 39233
[4]; read-out: % Activity Repeat1, 0.001 μM, TABLE 70
  activity at 0.001 µM: 80%
[4]; read-out: % Activity Repeat1, 1 nM, TABLE 73
  activity at 0.001 µM: 84%
[4]; read-out: % Activity Repeat1, 10 nM, TABLE 73
  activity at 0.01 µM: 27%
[4]; read-out: % Activity Repeat1, 0.1 μM, TABLE 70
  activity at 0.1 µM: 0%
[4]; read-out: % Activity Repeat1, 100 nM, TABLE 73
  activity at 0.1 µM: 5%
[4]; read-out: % Activity Repeat2, 0.001 μM, TABLE 70
  activity at 0.001 µM: 82%
[4]; read-out: % Activity Repeat2, 1 nM, TABLE 73
  activity at 0.001 µM: 66%
[4]; read-out: % Activity Repeat2, 0.01 μM, TABLE 70
  activity at 0.01 µM: 35%
[4]; read-out: % Activity Repeat2, 10 nM, TABLE 73
  activity at 0.01 µM: 20%
[4]; read-out: % Activity Repeat2, 0.1 μM, TABLE 70
  activity at 0.1 µM: 0%
[4]; read-out: % Activity Repeat2, 100 nM, TABLE 73
  activity at 0.1 µM: 0%
[4]; read-out: % Inhibition JAK3
  inhibition at 0.001 µM: 25%
  inhibition at 0.01 µM: 77%
  inhibition at 0.1 µM: 97%
